Experimental data from US4327224A, “α-[(alkylamino)alkyl]-4-hydroxy-3-(alkylthio)benzenemethanols, derivatives thereof and intermediates therefor” (Sterling Drug Inc., priority 1976, dated 1982).
Counter-ions that a name gives are not always drawn.

What was measured:
β-adrenergic [1] = test: Inhibition of isoproterenol-induced heart rate elevation in the pentobarbitalized dog (β-adrenergic blocking activity); format: in vivo; details: test compound 1.0 mg/kg, isoproterenol intravenous
[2] = tested on: respiratory smooth muscle; test: Inhibition of histamine-induced bronchoconstriction in the dog (β-adrenergic stimulant activity); format: in vivo; details: 100-200 mcg/kg, over a period of 2 hours
cardiac muscle = test: Increase in heart rate (β-adrenergic stimulant activity); format: in vivo; details: dog; 100-200 mcg/kg
systolic blood pressure = test: Reduction in systolic blood pressure in the unanesthetized spontaneous hypertensive rat (antihypertensive activity); format: in vivo; details: single oral medication
Protocol: Antihypertensive activity was determined on the basis of the observed reduction in systolic blood pressure measured according to the method of H. Kersten et al., J. Lab. and Clin. Med. 32, 1090 (1947) following a single oral medication in the unanesthetized spontaneous hypertensive rat described by Okamato et al., Japan Circulation J. 27, 282 (1963).

[3] = tested on: hind limb vasculature of the anesthetized dog; isolated rabbit ear artery; test: Reduction in perfusion pressure in hind limb vasculature of the anesthetized dog and in the isolated rabbit ear artery (vasodilator activity); format: in vivo
Source text: 17, 357 (1972), and also on the basis of percent reduction in perfusion pressure as measured in the isolated rabbit ear artery according to the method described by De La Lande et al. Aust. J. Exp. Biol. Med. Sci. 43, 639 (1965).

β-adrenergic [4] = details: Kaiser et al. 1975; cited from earlier work
β-adrenergic [5] = details: Kaiser et al. 1975; cited from earlier work; remark: listed apart in the source

SMILES	% Inhibition of Heart Rate Elevation (β-adrenergic [1]) [%]	inhibition of the histamine-induced bronchoconstriction [2] [%]	increase in heart rate (β-adrenergic stimulant activity) (cardiac muscle)	antihypertensive activity (reduction in systolic blood pressure) (systolic blood pressure)	vasodilator activity (reduction in perfusion pressure) [3]	β-adrenergic agonist activity (β-adrenergic [4])	β-adrenergic antagonistic activity (β-adrenergic [5])
CSc1cc(C(O)CNC(C)(C)C)ccc1OC(C)=O (stereo not drawn) [Example 3, α-[(tert-butylamino)methyl]-4-hydroxy-3-(methylthio)benzenemethanol 4-acetate hydrochloride]	50	50	increase in heart rate	antihypertensive	vasodilator activity	–	–
C[S+]([O-])c1cc(C(O)CNC(C)(C)C)ccc1O (stereo not drawn) [Example 4, α-[(t-butylamino)methyl]-4-hydroxy-3-(methylsulfinyl)benzenemethanolmethanesulfonate]	100	50	increase in heart rate	antihypertensive	vasodilator activity	–	–
CC(C)(C)NCC(O)c1ccc(O)c(S(C)(=O)=O)c1 (stereo not drawn) [Example 6, α-[(t-butylamino)methyl]-4-hydroxy-3-(methylsulfonyl)benzenemethanolmethanesulfonate]	87	–	–	–	–	–	–
CC(C)(C)NCC(O)c1ccc(O)c(S(C)(=O)=O)c1 (stereo not shown) [drawing 3]	–	–	–	–	–	weakly active	exhibits β-adrenergic antagonistic activity
